# ChEMBL document CHEMBL4002552, “Discovery of novel piperidine-substituted indolylarylsulfones as potent HIV NNRTIs via structure-guided scaffold morphing and fragment rearrangement” (Eur J Med Chem, 2017)
# Active and inactive are the calls of the source. The rule behind the calls is not given here.
# Tests used:
# [1] = test system: Human immunodeficiency virus 1; test: microbe, parasite or virus in culture; conditions: Human immunodeficiency virus 1, 3B, MT4, 120 h
# Description: Antiviral activity against HIV1 3B expressing wild type reverse transcriptase infected in human MT4 cells assessed as protection against virus-induced cytopathic effect after 5 days by MTT assay
# in vitro [2] = conditions: human, MT4 cells
# Description: Selectivity index, ratio of CC50 for human MT4 cells to EC50 for HIV1 expressing reverse transcriptase E138K mutant
# [3] = test system: Human immunodeficiency virus 1; test: Antiviral activity against HIV1 RES056 expressing reverse transcriptase mutant infected in human MT4 cells assessed as protection against virus-induced cytopathic effect after 5 days by MTT assay; type: functional, cell-based; conditions: Human immunodeficiency virus 1, RES056, MT4, 120 h
# in vitro [4] = conditions: human, MT4 cells; remark: listed apart in the source
# Description: Selectivity index, ratio of CC50 for human MT4 cells to EC50 for HIV1 expressing reverse transcriptase K103N mutant
# [5] = test system: Human immunodeficiency virus 1; type: functional, cell-based; conditions: Human immunodeficiency virus 1, MT4, 120 h
# in vitro [6] = conditions: human, MT4 cells; remark: listed apart in the source
# Description: Selectivity index, ratio of CC50 for human MT4 cells to EC50 for HIV1 expressing reverse transcriptase Y188L mutant
# in vitro [7] = conditions: human, MT4 cells; remark: listed apart in the source
# Description: Selectivity index, ratio of CC50 for human MT4 cells to EC50 for HIV1 expressing reverse transcriptase Y181C mutant
# in vitro [8] = conditions: human, MT4 cells; remark: listed apart in the source
# Description: Selectivity index, ratio of CC50 for human MT4 cells to EC50 for HIV1 3B expressing wild type reverse transcriptase
# [9] = test system: Human immunodeficiency virus 1; type: functional, cell-based; conditions: Human immunodeficiency virus 1, MT4, 120 h; remark: listed apart in the source
# [10] = test system: Human immunodeficiency virus 1; test: microbe, parasite or virus in culture; conditions: Human immunodeficiency virus 1, MT4, 120 h
# Description: Antiviral activity against HIV1 expressing reverse transcriptase L100I mutant infected in human MT4 cells assessed as protection against virus-induced cytopathic effect after 5 days by MTT assay
# [11] = test system: Human immunodeficiency virus 1; test: Antiviral activity against HIV1 expressing reverse transcriptase E138K mutant infected in human MT4 cells assessed as protection against virus-induced cytopathic effect after 5 days by MTT assay; type: functional, cell-based; conditions: Human immunodeficiency virus 1, MT4, 120 h
# in vitro [12] = conditions: human, MT4 cells; remark: listed apart in the source
# Description: Selectivity index, ratio of CC50 for human MT4 cells to EC50 for HIV1 expressing reverse transcriptase F227L/V106A double mutant
# [13] = test system: Human immunodeficiency virus 1; type: functional, cell-based; conditions: Human immunodeficiency virus 1, MT4, 120 h; remark: listed apart in the source
# [14] = Cytotoxicity against human MT4 cells assessed as decrease in cell viability after 5 days by MTT assay; type: cell-based
# in vitro [15] = conditions: human, MT4 cells; remark: listed apart in the source
# Description: Selectivity index, ratio of CC50 for human MT4 cells to EC50 for HIV1 expressing reverse transcriptase L100I mutant
# [16] = test system: Human immunodeficiency virus 1; test: Antiviral activity against HIV1 expressing reverse transcriptase K103N mutant infected in human MT4 cells assessed as protection against virus-induced cytopathic effect after 5 days by MTT assay; type: functional, cell-based; conditions: Human immunodeficiency virus 1, MT4, 120 h
# [17] = Inhibition of recombinant wild type HIV1 reverse transcriptase using poly (A).oligo (dT)15 as template/primer assessed as decrease in biotin-dUTP incorporation after 1 hr by ELISA; set-up: species or system Human immunodeficiency virus 1
# [18] = test system: Human immunodeficiency virus 2; test: Antiviral activity against HIV2 ROD infected in human MT4 cells assessed as protection against virus-induced cytopathic effect after 5 days by MTT assay; type: functional, cell-based; conditions: ISOLATE ROD
# in vitro [19] = conditions: human, MT4 cells; remark: listed apart in the source
# Description: Selectivity index, ratio of CC50 for human MT4 cells to EC50 for HIV1 RES056 expressing reverse transcriptase mutant
# [20] = test system: Human immunodeficiency virus 1; test: Potency index, ratio of delavirdine EC50 to test compound EC50 for HIV1 3B expressing wild type reverse transcriptase; type: functional
# [21] = test system: Human immunodeficiency virus 1; test: Resistance ratio of EC50 for HIV1 expressing reverse transcriptase L100I mutant to EC50 for HIV1 3B expressing wild type reverse transcriptase; type: functional
# [22] = test system: Human immunodeficiency virus 1; test: Potency index, ratio of nevirapine EC50 to test compound EC50 for HIV1 3B expressing wild type reverse transcriptase; type: functional
# [23] = test system: Human immunodeficiency virus 1; test: Resistance ratio of EC50 for HIV1 expressing reverse transcriptase K103N mutant to EC50 for HIV1 3B expressing wild type reverse transcriptase; type: functional
SMILES,EC50 [1],selectivity ratio (in vitro [2]),EC50 [3],selectivity ratio (in vitro [4]),EC50 [5],selectivity ratio (in vitro [6]),selectivity ratio (in vitro [7]),selectivity ratio (in vitro [8]),EC50 [9],EC50 [10],EC50 [11],selectivity ratio (in vitro [12]),EC50 [13],CC50 at 120 h [14],selectivity ratio (in vitro [15]),EC50 [16],IC50 [17],also measured
CC(C)Nc1cccnc1N1CCN(C(=O)c2cc3cc(NS(C)(=O)=O)ccc3[nH]2)CC1 [DELAVIRDINE],24 nM,634,≥ 37000 nM,18,2600 nM,81,23,1880,1900 nM,3500 nM,70 nM,17,550 nM,> 43800 nM,13,2500 nM,–,–
Cc1ccnc2c1NC(=O)c1cccnc1N2C1CC1 [NEVIRAPINE],–,–,2200 nM,–,3500 nM,–,–,–,3800 nM,–,160 nM,–,4400 nM,> 15000 nM,–,3600 nM,2800 nM,–
CCOC(=O)CCN1CCC(CNC(=O)c2[nH]c3ccc(Cl)cc3c2S(=O)(=O)c2cc(C)cc(C)c2)CC1,–,–,–,–,–,–,–,–,–,–,–,–,–,19200 nM,–,–,10100 nM,–
Cc1cc(C#N)cc(C)c1Oc1nc(Nc2ccc(C#N)cc2)nc(N)c1Br [ETRAVIRINE],–,–,34 nM,–,–,–,–,–,14 nM,9 nM,11 nM,–,15 nM,–,–,–,1100 nM,–
Cc1cc(C)cc(S(=O)(=O)c2c(C(=O)NC3CCN(CCO)CC3)[nH]c3ccc(Br)cc23)c1,6 nM,46,> 6300 nM,74,220 nM,< 1,48,1000,130 nM,17 nM,140 nM,28,> 6300 nM,6300 nM,368,84 nM,–,Activity [18]: inactive; selectivity ratio (in vitro [19]): < 1; Ratio EC50 [20]: 4; Ratio EC50 [21]: 2.8; Ratio EC50 [22]: 20; Ratio EC50 [23]: 14
O=C1Nc2ccc(Cl)cc2[C@@](C#CC2CC2)(C(F)(F)F)O1 [EFAVIRENZ],–,–,110 nM,–,76 nM,–,–,–,5 nM,–,–,–,92 nM,> 6300 nM,–,98 nM,–,–
Cc1cc(C)cc(S(=O)(=O)c2c(C(=O)NCC3CCN(CCO)CC3)[nH]c3ccc(Cl)cc23)c1,32 nM,22,> 6700 nM,21,620 nM,< 1,12,205,560 nM,110 nM,300 nM,11,> 6700 nM,6700 nM,59,320 nM,–,Activity [18]: inactive; selectivity ratio (in vitro [19]): < 1
